Measured values from patent US8551984B2, “Aminopyrimidines as SYK inhibitors” (Merck Sharp & Dohme Corp., priority 2009, dated 2013).

target: recombinant human SYK (GST-hSYK fusion protein) (Homo sapiens, UniProt P43405); experiment: biochemical; conditions: rhSYK Activity, Table 54D
Text: Homogeneous Time-Resolved Fluorescence (HTRF) Assay for the Recombinant Human SYK Enzyme:

IC50, < 100 nM:
C#Cc1ccc(C(=O)N2CCCC(O)(c3ncc(-c4cc(C)cc(Nc5nccc(C(F)(F)F)n5)c4)s3)CC2)cc1 (centres unmarked) [Example 54D-99]
CCC(CO)(CO)C(=O)N1CCCC(O)(c2ncc(-c3cc(C)cc(Nc4nccc(C(F)(F)F)n4)c3)s2)CC1 (centres unmarked) [Example 54D-102]
Cc1cc(Nc2nccc(C(F)(F)F)n2)cc(-c2cnc(C3(O)CCCN(C(=O)c4cc(O)ccc4F)CC3)s2)c1 (centres unmarked) [Example 54D-104]
Cc1cc(Nc2nccc(C(F)(F)F)n2)cc(-c2cnc(C3(O)CCCN(C(=O)c4ccnc(Cl)n4)CC3)s2)c1 (centres unmarked) [Example 54D-105]
CC(=O)Oc1ccc(C(=O)N2CCCC(O)(c3ncc(-c4cc(C)cc(Nc5nccc(C(F)(F)F)n5)c4)s3)CC2)cc1 (centres unmarked) [Example 54D-106]
COC(=O)C1CCC(C(=O)N2CCCC(O)(c3ncc(-c4cc(C)cc(Nc5nccc(C(F)(F)F)n5)c4)s3)CC2)CC1 (centres unmarked) [Example 54D-111]
COC(=O)C(O)(CC(=O)N1CCCC(O)(c2ncc(-c3cc(C)cc(Nc4nccc(C(F)(F)F)n4)c3)s2)CC1)C(F)(F)F (centres unmarked) [Example 54D-112]
Cc1cc(Nc2nccc(C(F)(F)F)n2)cc(-c2cnc(C3(O)CCCN(S(=O)(=O)NC(=O)OC(C)(C)C)CC3)s2)c1 (centres unmarked) [Example 54D-114]
Cc1cc(Nc2nccc(C(F)(F)F)n2)cc(-c2cnc(C3(O)CCCN(S(N)(=O)=O)CC3)s2)c1 (centres unmarked) [Example 54D-115]
Cc1cc(Nc2nccc(C(F)(F)F)n2)cc(-c2cnc(C3(O)CCCN(S(=O)(=O)O)CC3)s2)c1 (centres unmarked) [Example 54D-118]
Cc1cc(Nc2nccc(C(F)(F)F)n2)cc(-c2cnc(C3(O)CCCN(C(=O)CO)CC3)s2)c1 (centres unmarked) [Example 54D-121]

same assay, conditions: rhSYK Activity, Table 54E

IC50, < 100 nM:
Cc1cc(Nc2nccc(C(F)(F)F)n2)cc(-c2cnc([C@]3(O)CC[C@@H](NC(=O)[C@@H](C)O)CC3)s2)c1 [Example 54E-1]
Cc1cc(Nc2nccc(C(F)(F)F)n2)cc(-c2cnc(C3(O)CCC(NC(=O)CC(N)=O)CC3)s2)c1 (centres unmarked) [Example 54E-3]
Cc1cc(Nc2nccc(C(F)(F)F)n2)cc(-c2cnc([C@]3(O)CC[C@@H](NC(=O)c4ncc[nH]4)CC3)s2)c1 [Example 54E-4]
Cc1cc(Nc2nccc(C(F)(F)F)n2)cc(-c2cnc([C@]3(O)CC[C@@H](NC(=O)c4c[nH]cn4)CC3)s2)c1 [Example 54E-5]
Cc1cc(Nc2nccc(C(F)(F)F)n2)cc(-c2cnc([C@]3(O)CC[C@@H](NC(=O)c4c[nH]nn4)CC3)s2)c1 [Example 54E-6]
Cc1cc(Nc2nccc(C(F)(F)F)n2)cc(-c2cnc(C3(O)CCC(NC(=O)C4CC(O)C4)CC3)s2)c1 (centres unmarked) [Example 54E-7]
Cc1cc(Nc2nccc(C(F)(F)F)n2)cc(-c2cnc(C3(O)CCC(NC(=O)CCC(N)=O)CC3)s2)c1 (centres unmarked) [Example 54E-8]
Cc1cc(Nc2nccc(C(F)(F)F)n2)cc(-c2cnc([C@]3(O)CC[C@@H](NC(=O)c4ccccc4)CC3)s2)c1 [Example 54E-9]
Cc1cc(Nc2nccc(C(F)(F)F)n2)cc(-c2cnc([C@]3(O)CC[C@@H](NC(=O)Cc4c[nH]cn4)CC3)s2)c1 [Example 54E-10]
Cc1cc(Nc2nccc(C(F)(F)F)n2)cc(-c2cnc(C3(O)CCC(NC(=O)Cn4cncn4)CC3)s2)c1 (centres unmarked) [Example 54E-11]
Cc1cc(Nc2nccc(C(F)(F)F)n2)cc(-c2cnc([C@]3(O)CC[C@@H](NC(=O)Cn4ccnn4)CC3)s2)c1 [Example 54E-12]
Cc1cc(Nc2nccc(C(F)(F)F)n2)cc(-c2cnc(C3(O)CCC(NC(=O)Cn4cnnn4)CC3)s2)c1 (centres unmarked) [Example 54E-13]
Cc1cc(Nc2nccc(C(F)(F)F)n2)cc(-c2cnc([C@]3(O)CC[C@@H](NC(=O)C4CCCCC4)CC3)s2)c1 [Example 54E-14]
Cc1cc(Nc2nccc(C(F)(F)F)n2)cc(-c2cnc(C3(O)CCC(NC(=O)C4CNC(=O)N4)CC3)s2)c1 (centres unmarked) [Example 54E-15]
Cc1cc(Nc2nccc(C(F)(F)F)n2)cc(-c2cnc(C3(O)CCC(NC(=O)C4CCCCO4)CC3)s2)c1 (centres unmarked) [Example 54E-16]
Cc1cc(Nc2nccc(C(F)(F)F)n2)cc(-c2cnc(C3(O)CCC(NC(=O)CC4CCCO4)CC3)s2)c1 (centres unmarked) [Example 54E-17]
Cc1cc(Nc2nccc(C(F)(F)F)n2)cc(-c2cnc(C3(O)CCC(NC(=O)C(C)(CO)CO)CC3)s2)c1 (centres unmarked) [Example 54E-20]
Cc1cc(Nc2nccc(C(F)(F)F)n2)cc(-c2cnc([C@]3(O)CC[C@@H](NC(=O)Cc4ccccn4)CC3)s2)c1 [Example 54E-21]
Cc1cc(Nc2nccc(C(F)(F)F)n2)cc(-c2cnc([C@]3(O)CC[C@@H](NC(=O)CS(C)(=O)=O)CC3)s2)c1 [Example 54E-22]
Cc1cc(Nc2nccc(C(F)(F)F)n2)cc(-c2cnc([C@]3(O)CC[C@@H](NC(=O)Cc4ncccn4)CC3)s2)c1 [Example 54E-23]
Cc1cc(Nc2nccc(C(F)(F)F)n2)cc(-c2cnc([C@]3(O)CC[C@@H](NC(=O)c4ccc(O)cn4)CC3)s2)c1 [Example 54E-24]
Cc1cc(Nc2nccc(C(F)(F)F)n2)cc(-c2cnc(C3(O)CCC(NC(=O)c4cccc(O)n4)CC3)s2)c1 (centres unmarked) [Example 54E-25]
Cc1cc(Nc2nccc(C(F)(F)F)n2)cc(-c2cnc([C@]3(O)CC[C@@H](NC(=O)CCc4cn[nH]c4)CC3)s2)c1 [Example 54E-26]
Cc1cc(Nc2nccc(C(F)(F)F)n2)cc(-c2cnc(C3(O)CCC(NC(=O)CCn4cncn4)CC3)s2)c1 (centres unmarked) [Example 54E-27]
Cc1cc(Nc2nccc(C(F)(F)F)n2)cc(-c2cnc(C3(O)CCC(NC(=O)C4CCCC(=O)N4)CC3)s2)c1 (centres unmarked) [Example 54E-28]
Cc1cc(Nc2nccc(C(F)(F)F)n2)cc(-c2cnc(C3(O)CCC(NC(=O)CC4CCOCC4)CC3)s2)c1 (centres unmarked) [Example 54E-29]
Cc1cc(Nc2nccc(C(F)(F)F)n2)cc(-c2cnc(C3(O)CCC(NC(=O)C(O)C(F)(F)F)CC3)s2)c1 (centres unmarked) [Example 54E-30]
Cc1cc(Nc2nccc(C(F)(F)F)n2)cc(-c2cnc(C3(O)CCC(NC(=O)CCC(=O)N(C)C)CC3)s2)c1 (centres unmarked) [Example 54E-31]
C#Cc1ccc(C(=O)NC2CCC(O)(c3ncc(-c4cc(C)cc(Nc5nccc(C(F)(F)F)n5)c4)s3)CC2)cc1 (centres unmarked) [Example 54E-32]
Cc1cc(Nc2nccc(C(F)(F)F)n2)cc(-c2cnc([C@]3(O)CC[C@@H](NC(=O)c4ccc(C#N)cc4)CC3)s2)c1 [Example 54E-33]
Cc1cc(Nc2nccc(C(F)(F)F)n2)cc(-c2cnc(C3(O)CCC(NC(=O)c4cc(O)ccc4F)CC3)s2)c1 (centres unmarked) [Example 54E-35]
Cc1cc(Nc2nccc(C(F)(F)F)n2)cc(-c2cnc([C@]3(O)CC[C@@H](NC(=O)c4ccc(O)c(F)c4)CC3)s2)c1 [Example 54E-36]
Cc1cc(Nc2nccc(C(F)(F)F)n2)cc(-c2cnc(C3(O)CCC(NC(=O)CC(N)C(F)(F)F)CC3)s2)c1 (centres unmarked) [Example 54E-37]
COC(=O)C1CCC(C(=O)NC2CCC(O)(c3ncc(-c4cc(C)cc(Nc5nccc(C(F)(F)F)n5)c4)s3)CC2)CC1 (centres unmarked) [Example 54E-38]

same assay, conditions: rhSYK Activity, Table 56

IC50, < 100 nM:
Cc1cc(Nc2nccc(C)n2)cc(-c2cnc(C3(O)CCC3)s2)c1 [Example 56-1]
CCc1ccnc(Nc2cc(C)cc(-c3cnc(C4(O)CCC4)s3)c2)n1 [Example 56-2]
Cc1cc(Nc2nccc(C3CC3)n2)cc(-c2cnc(C3(O)CCC3)s2)c1 [Example 56-3]

same assay, conditions: rhSYK Activity, Table 61B

IC50, < 100 nM:
Cc1cc(Nc2nccc(C(F)(F)F)n2)cc(-c2cnc(C3(N)CCC3)s2)c1 [Example 61B-1, N-{3-[2-(1-aminocyclobutyl)-1,3-thiazol-5-yl]-5-methylphenyl}-4-(trifluoromethyl)pyrimidin-2-amine]
Cc1cc(Nc2nccc(C(F)(F)F)n2)cc(-c2cnc(C3(NS(=O)(=O)CC(F)(F)F)CCC3)s2)c1 [Example 61B-2]
Cc1cc(Nc2nccc(C(F)(F)F)n2)cc(-c2cnc(C3(NS(=O)(=O)CF)CCC3)s2)c1 [Example 61B-3]
Cc1cc(Nc2nccc(C(F)(F)F)n2)cc(-c2cnc(C3(NS(C)(=O)=O)CCC3)s2)c1 [Example 61B-4]
Cc1cc(Nc2nccc(C(F)(F)F)n2)cc(-c2cnc(C3(NS(=O)(=O)C(F)(F)F)CCC3)s2)c1 [Example 61B-5]
Cc1cc(Nc2nccc(C(F)(F)F)n2)cc(-c2cnc(C3(NS(=O)(=O)CC(F)(F)F)COC3)s2)c1 [Example 61B-7]
Cc1cc(Nc2nccc(C(F)(F)F)n2)cc(-c2cnc(C3(N[S+]([O-])C(F)F)COC3)s2)c1 (centres unmarked) [Example 61B-8]
CS(=O)(=O)NC1(c2ncc(-c3cccc(Nc4nccc(C(F)(F)F)n4)c3)s2)COC1 [Example 61B-9]
COc1nc(Nc2cc(C)cc(-c3cnc(C4(N)COC4)s3)c2)ncc1Cl [Example 61B-10]

same assay, conditions: rhSYK Activity, Table 62

IC50, < 100 nM:
Cc1cc(Nc2ncccn2)cc(-c2cnc(C3(N)CCC3)s2)c1 [Example 62-1]
COc1ccnc(Nc2cc(C)cc(-c3cnc(C4(N)CCC4)s3)c2)n1 [Example 62-2]
